Data published in patent publication US20260256780A1, “COMPOSITIONS FOR INDUCING RAS GTP HYDROLYSIS AND USES THEREOF” (Revolution Medicines, Inc., priority 2023, published 2026).

Columns and labels:
[1] = tested on: KRASG12D-mutant cell line AsPC-1; assay: Cell viability (CellTiter-Glo) and HSA synergy model, AsPC-1; type: cell-based
Method: (§1) Cell lines were seeded in complete growth media (RPMI-1640 or DMEM with 10% Fetal Bovine Serum and 1% Penicillin/Streptomycin) and allowed to adhere overnight in a 37° C. and 5% CO2 humidified incubator. The following day compounds were added at the indicate concentrations and incubated for a further 5 days. The number of viable cells in each well were assessed with Promega CellTiter-Glo® reagent according to manufacturer instructions. The cell viability was normalized to DMSO controls. The cell viability as a function of compound concentrations were plotted using GraphPad Prism analyzed using the Combenefit software package (Di Veroli G Y, Fornari C, Wang D, Mollard S, Bramhall J L, Richards F M, Jodrell D I. Combenefit: an interactive platform for the analysis and visualization of drug combinations. Bioinformatics. 2016 Sep. 15; 32(18):2866-8. doi: 10.1093/bioinformatics/btw230) to assess the synergy according to the highest single agent (HSA) synergy model (Borisy A A, Elliott P J, Hurst N W, Lee M S, Lehar J, Price E R, Serbedzija G, Zimmermann G R, Foley M A, Stockwell B R, Keith C T. Systematic discovery of multicomponent therapeutics. Proc Natl Acad Sci USA. 2003 Jun. 24; 100(13):7977-82. doi: 10.1073/pnas.1337088100)).
The KRASG12D-mutant cell line AsPC-1 was grown in RPMI-1640 supplemented with 10% fetal bovine serum and 1% penicillin/streptomycin. 2500 cells were seeded in 0.15 mL in the wells of a tissue culture-treated 96-well plate. After overnight incubation, compounds were added at the indicated concentration and incubated for a further 120 hours. Cell viability was assessed with Promega CellTiter Glo reagent, and the relative cell viability was plotted as a function of the concentration of (FIG. 4A and FIG. 4G) MRTX1133 or (FIG. 4D) MRTX-282 in combination with the indicated concentration to Compound A (FIG. 4A and FIG. 4D) or Compound D (FIG. 4G), both strong hydrolyzers. The synergy between (FIG. 4B and FIG. 4H) MRTX1133 or (FIG. 4E) MRTX-282 and Compound A (FIGS. 4B and 4E) or Compound D (FIG. 4H) was assessed by the HAS synergy model. Representative points of synergistic drug combination between (FIG. 4C and FIG. 4I) MRTX1133 or (FIG. 4F) MRTX-282 and Compound A (FIG. 4C and FIG. 4F) or Compound D (FIG. 4I) are highlighted.
The KRASG12D-mutant cell line AsPC-1 was grown in RPMI-1640 supplemented with 10% fetal bovine serum and 1% penicillin/streptomycin. 2000 cells were seeded in 0.15 mL in the wells of a tissue culture-treated 96-well plate. After overnight incubation, compounds were added at the indicated concentration and incubated for a further 120 hours. Cell viability was assessed with Promega CellTiter Glo reagent, and the relative cell viability was plotted as a function of the concentration of pan KRAS-IN-1 in combination with the indicated concentration to Compound D (FIG. 11A) or Compound C (FIG. 11D), both strong hydrolyzers. The synergy between pan KRAS-IN-1 and Compound D (FIG. 11B) or Compound C (FIG. 11E) was assessed by the HAS synergy model. Representative points of synergistic drug combination between pan KRAS-IN-1 and Compound D (FIG. 11C) or Compound C (FIG. 11F).

[2] = tested on: KRASG12V-mutant cell line Capan-2; assay: Cell viability (CellTiter-Glo) and HSA synergy model, Capan-2; type: cell-based; details: in combination with pan KRAS-IN-1, 120 hours
Method: as §1
The KRASG12V-mutant cell line Capan-2 was grown in RPMI-1640 supplemented with 10% fetal bovine serum and 1% penicillin/streptomycin. […]

[3] = tested on: KRASG12C-mutant cell line H358; assay: Cell viability (CellTiter-Glo) and HSA synergy model, H358; type: cell-based; details: in combination with pan KRAS-IN-1, 120 hours
Method: as §1
The KRASG12C-mutant cell line H358 was grown in RPMI-1640 supplemented with 10% fetal bovine serum and 1% penicillin/streptomycin. […]

[4] = tested on: KRASG12R-mutant cell line PSN1; assay: Cell viability (CellTiter-Glo) and HSA synergy model, PSN1; type: cell-based; details: in combination with pan KRAS-IN-1, 120 hours
Method: as §1
The KRASG12R-mutant cell line PSN1 was grown in RPMI-1640 supplemented with 10% fetal bovine serum and 1% penicillin/streptomycin. […]

[5] = tested on: RAS wild-type cell line, HaCat; assay: Cell viability (CellTiter-Glo) and HSA synergy model, HaCat control; type: cell-based, human
Method: as §1
The KRASG12D-mutant cell line Gp2D was grown in RPMI-16 40 supplemented with 10% fetal bovine serum and 1% penicillin/streptomycin. […]

[6] = biological target: T1, GTP-loaded KRAS proteins (residue 1-169 of KRAS4B) (Homo sapiens, UniProt P01116, G12V); assay: RAS GTP hydrolysis rate assay (GTPase-Glo) with cyclophilin A; type: biochemical; details: bound in tri-complex with cyclophilin A; in some embodiments KRAS^G12V is the isoform used
T1 construct: recombinant KRAS proteins (residue 1-169 of KRAS4B); His6 (TEV protease-cleavable) (cleaved yes); made in house; host or cells: E. coli
Method: (§2) The rate of RAS GTP hydrolysis was assayed in the presence of various KRAS mutations. To assess GTP hydrolysis activity, recombinant KRAS proteins (residue 1-169 of KRAS4B) were expressed in E. coli and purified using a TEV protease-cleavable His6-tag and Ni^2+ affinity chromatography. The His6 tag was removed by treatment with TEV protease, and the KRAS protein was isolated by passing through a second Ni^2+ column followed by size exclusion chromatography. The purified KRAS proteins were loaded with GTP by incubation for 2 hours on ice with 2 mM GTP and 10 mM Ethylenediaminetetraacetic Acid, followed by addition of 10 mM MgCl2 and incubation on ice for 1 additional hour. The excess GTP was removed by overnight dialysis against buffer (12.5 mM HEPES, 75 mM NaCl, pH 7.5) at 4° C. The GTP-loaded KRAS protein were flash frozen in liquid nitrogen, then stored at −80° C. until use.
(§3) GTP-loaded KRAS proteins (1 μM) were combined with 25 μM of recombinant human cyclophilin A and 10 μM of compound in reaction buffer (12.5 mM HEPES, 75 mM NaCl, 1 mM MgCl2, 1 mM DTT, 1% DMSO, pH 7.5) pre-warmed to 37° C. At fixed time points, aliquots were removed and quenched by heating to 80° C. to denature the proteins, then centrifuged to pellet the protein precipitate. The supernatant was assessed for GTP levels using Promega GTPase-Glo™ according to manufacturer instructions. The levels of GTP as a function of incubation time were fit to a single phase exponential decay to determine the rate constant for hydrolysis activity.

[7] = tested on: GTP-loaded KRAS proteins (residue 1-169 of KRAS4B); assay: as above; type: biochemical; details: all RAS mutants except those with mutations of the Q61 residue; 10 μM compound, 25 μM cyclophilin A, 37° C.
Method: as §2, §3

[8] = tested on: complexes between KRAS proteins and the RAS-binding domain (RBD) of the RAF1 kinase; assay: Intracellular RAS-RAF complex reporter assay (nanoBRET) in U2OS cells, multiple KRAS variants; type: cell-based; details: 4 hours
Method: A cellular assay was used to measure complexes between KRAS proteins and the RAS-binding domain (RBD) of the RAF1 kinase by nanoluciferase bioluminescence energy transfer (nanoBRET™) U2OS cells were seeded at confluence in the 3 mL of DMEM supplemented with 10% fetal bovine serum and 1% penicillin/streptomycin (approximately 1 million cells per well). The following day, each well was transfected with 50 ng of a plasmid encoding N-terminal nanoluciferase-tagged KRAS4B and 2950 ng of a plasmid encoding a C-terminal HaloTag® RAF1 RBD (residues 51-149) using FuGENE HD reagent according to manufacturer instructions. The following day, each transfected cell pool was transferred to 36 wells of a white 96-well plate in media consistiting of OptiMem phenol-red free supplemented with 4% fetal bovine serum, 1% penicillin/streptomycin, and 100 nM of HaloTag® NanoBRET™ 618 Ligand. The following day, Vivazine™ nanoluciferase substrate and compounds were added at the indicated concentration. After 4 hours of incubation, the emitted light at 460 and 618 nm was measured using a PerkinElmer Envision plate reader. The luminescence intensity at 618 nm relative to 460 nm is proportional to the number of complexes between the KRAS protein and the RBD of RAF1, a surrogate measure of the levels of active KRAS.

KRAS^WT-RAF1 RBD complex = biological target: T2, KRAS^WT-RAF1 RBD complex (Homo sapiens, UniProt P01116); assay: Intracellular RAS-RAF complex reporter assay (nanoBRET) in U2OS cells, KRAS^WT; type: cell-based; details: 4 hours
T2 construct: expressed in transfected cells; host or cells: U2OS
Method: A cellular assay was used to measure complexes between KRAS proteins and the RAS-binding domain (RBD) of the RAF1 kinase by nanoluciferase bioluminescence energy transfer (nanoBRET™) U2OS cells were seeded at confluence in the 3 mL of DMEM supplemented with 10% fetal bovine serum and 1% penicillin/streptomycin (approximately 1 million cells per well). […] The following day, Vivazine™ nanoluciferase substrate and compounds were added at the indicated concentration. After 4 hours of incubation, the emitted light at 460 and 618 nm was measured using a PerkinElmer Envision plate reader. The luminescence intensity at 618 nm relative to 460 nm is proportional to the number of complexes between the KRAS protein and the RBD of RAF1, a surrogate measure of the levels of active KRAS.

[9] = AsPC-1, in combination with pan KRAS-IN-1, 120 hours

Row | Structure (SMILES) | synergy on cell viability (HSA synergy model) [1, 9] | synergy on cell viability (HSA synergy model) [2] | synergy on cell viability (HSA synergy model) [3] | synergy on cell viability (HSA synergy model) [4] | synergy on cell viability (HSA synergy model) ([1]; AsPC-1, in combination with MRTX1133, 120 hours) | synergy on cell viability (HSA synergy model) ([5]; in combination with MRTX1133) | synergy on cell viability (HSA synergy model) ([5]; in combination with MRTX-282) | hydrolyzer class: RAS(ON) GTP hydrolysis rate relative to the intrinsic hydrolysis rate [6] | RAS GTP hydrolysis in various RAS mutants in the presence of compound [7] | potency for inhibition of RAS-RAF complexes across multiple KRAS variants [8] | potency for inhibition of RAS-RAF complexes vs KRAS^WT, relative to the other KRAS variants (KRAS^WT-RAF1 RBD complex)
1 | CCn1c(-c2cc(N3CCN(C)CC3)cnc2[C@H](C)OC)c2c3cc(ccc31)CCCC[C@H](NC(=O)[C@H]1C[C@@H]1C)C(=O)N1CCC[C@H](N1)C(=O)OCC(C)(C)C2 (atropisomer, axis not shown) [compound 3] | synergistic | synergistic | synergistic | synergistic |  |  |  |  |  |  | 
2 | CCn1c(-c2cc(N3CCN(C)CC3)cnc2[C@H](C)OC)c2c3cc(ccc31)[C@@H]1C[C@H]1CC[C@H](NC(=O)[C@H]1[C@H](C)[C@@H]1C)C(=O)N1CCC[C@H](N1)C(=O)OCC(C)(C)C2 (atropisomer, axis not shown) [compound 6] | synergistic | synergistic | synergistic | synergistic | synergistic | no synergy | no synergy |  |  |  | 
3 | CCn1c(-c2cc(N3CCN(C4CC4)CC3)cnc2[C@H](C)OC)c2c3cc(ccc31)-c1csc(n1)C[C@H](NC(=O)[C@H]1[C@@H]3COC[C@@H]31)C(=O)N1CCC[C@H](N1)C(=O)OCC(C)(C)C2 (atropisomer, axis not shown) [compound 8] |  |  |  |  |  |  |  | 8 (Compound E) Moderate | increased hydrolysis | roughly similar potency | modestly lower potency
